Here are results for 47 molecules from ChEMBL document CHEMBL3603753, “Carbamoyl Triazoles, Known Serine Protease Inhibitors, Are a Potent New Class of Antimalarials” (J Med Chem, 2015).

pIC50: −log10 of the molar value. ≈ marks a conversion by molar mass, not a printed value. Calls of active or inactive are those of the source.

Data set [1] relates to Plasmodium falciparum. Nature of the data set: Antimalarial activity against Plasmodium falciparum 3D7 infected in erythrocytes incubated for 48 hrs by [3H]hypoxanthine incorporation assay. The format is functional, organism-based.
The test system of data set [2] is Plasmodium falciparum. Nature of the data set: Antimalarial activity against Plasmodium falciparum infected in erythrocytes assessed as young trophozoites level at 10 times antimalarial IC50 level incubated for 24 and 48 hrs by Giemsa staining based microsocpy.
Data set [3] concerns Plasmodium falciparum. Nature of the data set: Antimalarial activity against Plasmodium falciparum 3D7 infected in erythrocytes incubated for 72 hrs by [3H]hypoxanthine incorporation assay. The format is functional, organism-based.
A short description of data set [4]: Half life in mouse liver microsomes. Type of data set: ADME. In general terms: Microsomes from liver hold many membrane-bound enzymes, among them those of drug oxidation.
The nature of data set [5]: Half life in human liver microsomes. Type of data set: ADME.
For the next data set, the system named is Liver microsome. Nature of the data set: Intrinsic clearance in human liver microsomes. Type of data set: ADME.
In data set [6] the target is T1, Subtilisin-like protease 1 (Plasmodium falciparum, UniProt O61142).
T1 sequence (O61142 whole entry): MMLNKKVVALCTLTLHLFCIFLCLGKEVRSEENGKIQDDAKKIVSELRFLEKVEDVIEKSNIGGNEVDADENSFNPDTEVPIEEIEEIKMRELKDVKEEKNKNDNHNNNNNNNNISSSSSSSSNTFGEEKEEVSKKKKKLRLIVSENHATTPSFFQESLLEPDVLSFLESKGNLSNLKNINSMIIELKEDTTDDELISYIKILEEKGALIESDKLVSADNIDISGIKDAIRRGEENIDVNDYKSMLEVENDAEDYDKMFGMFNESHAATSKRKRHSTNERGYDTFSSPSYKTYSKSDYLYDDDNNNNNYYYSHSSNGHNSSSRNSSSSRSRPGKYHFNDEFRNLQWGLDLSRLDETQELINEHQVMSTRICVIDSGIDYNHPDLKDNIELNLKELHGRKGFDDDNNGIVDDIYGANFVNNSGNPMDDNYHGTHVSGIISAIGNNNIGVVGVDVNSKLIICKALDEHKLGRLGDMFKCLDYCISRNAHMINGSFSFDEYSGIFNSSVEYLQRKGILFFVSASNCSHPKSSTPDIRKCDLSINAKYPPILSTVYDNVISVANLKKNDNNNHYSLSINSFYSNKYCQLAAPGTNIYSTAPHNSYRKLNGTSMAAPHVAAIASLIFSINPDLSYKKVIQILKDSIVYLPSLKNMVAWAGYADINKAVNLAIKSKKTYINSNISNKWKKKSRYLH
Nature of the data set: Inhibition of Plasmodium falciparum recombinant SUB1 using SERA4st1F-6R12 substrate incubated for 55 mins by fluorescence spectrophotometry.

The next data set concerns the target Acetylcholinesterase (Homo sapiens, UniProt P22303). Nature of the data set: Inhibition of human AChE.
Data set [7] in a line: Kinetic solubility of the compound by chemoluminescent nitrogen detection kinetic solubility assay. Type of data set: physicochemical. Particulars: read-out: Kinetic_solubility.
A further data set relates to HepG2. Nature of the data set: Cytotoxicity against human HepG2 cells. The format is cell-based.

Sequence of Acetylcholinesterase (P22303 whole entry): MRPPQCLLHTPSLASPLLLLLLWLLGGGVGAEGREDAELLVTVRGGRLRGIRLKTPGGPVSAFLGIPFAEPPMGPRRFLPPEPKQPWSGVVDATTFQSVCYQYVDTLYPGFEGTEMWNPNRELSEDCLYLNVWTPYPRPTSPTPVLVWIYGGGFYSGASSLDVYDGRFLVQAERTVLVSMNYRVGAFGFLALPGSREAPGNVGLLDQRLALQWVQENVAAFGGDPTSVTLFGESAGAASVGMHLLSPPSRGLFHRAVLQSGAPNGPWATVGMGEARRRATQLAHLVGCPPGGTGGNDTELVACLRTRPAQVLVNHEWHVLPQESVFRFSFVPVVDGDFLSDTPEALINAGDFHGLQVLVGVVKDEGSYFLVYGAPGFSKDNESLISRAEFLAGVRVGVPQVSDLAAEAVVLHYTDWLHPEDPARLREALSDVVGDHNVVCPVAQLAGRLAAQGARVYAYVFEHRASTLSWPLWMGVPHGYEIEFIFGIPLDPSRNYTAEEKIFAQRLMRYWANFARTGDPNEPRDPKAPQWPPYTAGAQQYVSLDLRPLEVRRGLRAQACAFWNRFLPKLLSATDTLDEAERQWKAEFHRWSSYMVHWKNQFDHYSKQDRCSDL

The molecule `CC(C)N(C)C(=O)n1cnc(S(=O)(=O)C2C3CC4CC(C3)CC2C4)n1` (configuration not stated) showed a pIC50 in the data set on Plasmodium falciparum [1] of 8.10. Same read-out and setting: to `CCN(CC)C(=O)n1cnc(S(=O)(=O)[C@@H]2C[C@H]3CC[C@@H]2C3)n1` belongs 6.23. With `O=C1C(O)=C([C@H]2CC[C@H](c3ccc(Cl)cc3)CC2)C(=O)c2ccccc21` [ATOVAQUONE], the result in the data set on Plasmodium falciparum [2] was Active. Besides, the pIC50 was 9.52 with Plasmodium falciparum [3] and 9.00 in the data set on Plasmodium falciparum [1]. Take `CC(C)N(C(=O)n1cnc(S(=O)(=O)[C@@H]2C[C@H]3CC[C@@H]2C3)n1)C(C)C`: the pIC50 in the data set with Plasmodium falciparum [3] and in the data set on Plasmodium falciparum [1] was less than 5.30 in each case. `COc1cccc(CN(C)C(=O)n2cnc(S(=O)(=O)[C@@H]3C[C@H]4CC[C@@H]3C4)n2)c1` had a pIC50 in the data set on Plasmodium falciparum [1] of 7.44. Regarding `CN(Cc1ccccc1)C(=O)n1cnc(S(=O)(=O)[C@@H]2C[C@H]3CC[C@@H]2C3)n1`, the half-life in data set [4] was 19.4 min; in [5] it was more than 30 min. For the same molecule, the pIC50 was 6.42 in the data set with Plasmodium falciparum [3] and 6.59 in the data set on Plasmodium falciparum [1]. For the same molecule, the Intrinsic clearance in the data set with Liver microsome amounted to 1.5 mL/min/g. Turning to `CN(C(=O)n1cnc(S(=O)(=O)[C@@H]2C[C@H]3CC[C@@H]2C3)n1)c1ccccc1`, the pIC50 in the data set on Plasmodium falciparum [3] and in the data set with Plasmodium falciparum [1] was 5.57 each time. `CC(C)N(C)C(=O)n1cnc(S(=O)(=O)C2CCCCC2)n1` gave a pIC50 with Plasmodium falciparum [1] of 7.55. In the case of `CC(C)N(C)C(=O)n1cnc(S[C@@H]2C[C@H]3CC[C@@H]2C3)n1`, the IC50 entry in data set [6] is listed as “Not Active”. In the data set with Plasmodium falciparum [1], the pIC50 is 7.15. `COc1ccc(CN(C(=O)n2cnc(S(=O)(=O)[C@@H]3C[C@H]4CC[C@@H]3C4)n2)C2CC2)cc1` had a pIC50 in the data set on Plasmodium falciparum [1] of 5.99.

Consider `CN(Cc1cccnc1)C(=O)n1cnc(S(=O)(=O)[C@@H]2C[C@H]3CC[C@@H]2C3)n1`, for which the pIC50 with Plasmodium falciparum [1] was 7.07. Turning to `O=C(N1CCCC1)n1cnc(S(=O)(=O)Cc2ccccc2)n1`, the IC50 entry in data set [6] was “Not Active”. The molecule further had a pIC50 in the data set with Plasmodium falciparum [1] of 6.38.

`CC(=O)c1ccc(CN(C)C(=O)n2cnc(S(=O)(=O)[C@@H]3C[C@H]4CC[C@@H]3C4)n2)cc1`: the pIC50 in the data set on Plasmodium falciparum [1] is 7.30. The same measure, in the same setting: to `CCN(C)C(=O)n1cnc(S(=O)(=O)[C@@H]2C[C@H]3CC[C@@H]2C3)n1` belongs 7.03; to `O=C(N1CCCC1)n1cnc(SCc2ccccc2)n1`, 5.84.

With `CSc1nc(-c2ccc(OC(F)(F)F)cc2)nn1C(=O)N(C)c1ccccc1`, the pIC50 on Acetylcholinesterase is less than 1.30.

Molecule `CSc1nc(-c2ccc(OC(F)(F)F)cc2)nn1C(=O)N(C)C` showed a pIC50 against Acetylcholinesterase of 3.70. In the data set with Plasmodium falciparum [1], `CN(Cc1cccc(Cl)c1)C(=O)n1cnc(S(=O)(=O)[C@@H]2C[C@H]3CC[C@@H]2C3)n1` showed a pIC50 of 6.51. `CC(C)N(C)C(=O)n1cnc(S(=O)(=O)c2ccc(Cl)cc2)n1`: the pIC50 with Plasmodium falciparum [1] was 7.72. Regarding `COc1ccc(CN(C)C(=O)n2cnc(S(=O)(=O)[C@@H]3C[C@H]4CC[C@@H]3C4)n2)c(OC)c1`, the pIC50 with Plasmodium falciparum [1] was 7.52. Against the preceding molecule, the pIC50 is 0.20 log units lower.

Turning to `CN(Cc1cccc(C#N)c1)C(=O)n1cnc(S(=O)(=O)[C@@H]2C[C@H]3CC[C@@H]2C3)n1`, in the data set on Plasmodium falciparum [1], the pIC50 is 5.46. Molecule `CN(Cc1ccc(S(C)(=O)=O)cc1)C(=O)n1cnc(S(=O)(=O)[C@@H]2C[C@H]3CC[C@@H]2C3)n1` showed a pIC50 with Plasmodium falciparum [1] of 6.54.

For the molecule `CC(C)N(C(=O)n1cnc(S[C@@H]2C[C@H]3CC[C@@H]2C3)n1)C(C)C`, in [6], the IC50 entry is on record as “Not Active”. Moreover, the half-life in data set [4] is less than 5 min; in data set [5], 22.3 min. Besides, the pIC50 was 6.27 in the data set with Plasmodium falciparum [3] and 5.85 in the data set with Plasmodium falciparum [1]. The molecule also yielded an Intrinsic clearance in the data set with Liver microsome of 3.1 mL/min/g. On to `CN(C)C(=O)n1cnc(S(=O)(=O)c2ccc(Cl)cc2)n1`, for which the pIC50 in the data set with Plasmodium falciparum [1] was 6.24. The same measure, in the same setting: the figure for `CN(C(=O)n1cnc(S[C@@H]2C[C@H]3CC[C@@H]2C3)n1)c1ccccc1` is less than 5.30. In the data set on Plasmodium falciparum [1], `CN(C(=O)n1cnc(S(=O)(=O)[C@@H]2C[C@H]3CC[C@@H]2C3)n1)C(C)(C)C` had a pIC50 of less than 5.30. In the case of `COc1ccc(CN(C(=O)n2cnc(S(=O)(=O)[C@@H]3C[C@H]4CC[C@@H]3C4)n2)C(C)C)cc1`, the pIC50 in the data set on Plasmodium falciparum [1] was 6.08. Take `O=C(N1CCCC1)n1cnc(S(=O)(=O)[C@@H]2C[C@H]3CC[C@@H]2C3)n1`: the half-life is less than 5 min in data set [4] and more than 30 min in data set [5]. The pIC50 in the data set on Plasmodium falciparum [3] was 7.43; in the data set with Plasmodium falciparum [1], 7.08. The molecule further had an Intrinsic clearance in the data set on Liver microsome of 1 mL/min/g. In turn, `O=C(N1CCc2ccccc2C1)n1cnc(S(=O)(=O)[C@@H]2C[C@H]3CC[C@@H]2C3)n1` gave a pIC50 in the data set with Plasmodium falciparum [1] of less than 5.30.

In the data set on Plasmodium falciparum [1], `CN(C)C(=O)n1cnc(S[C@@H]2C[C@H]3CC[C@@H]2C3)n1` showed a pIC50 of 6.85. The same measure, in the same setting: to `CN(Cc1ccccc1Cl)C(=O)n1cnc(S(=O)(=O)[C@@H]2C[C@H]3CC[C@@H]2C3)n1` belongs 6.14; to `CN(C)C(=O)n1cnc(S(=O)(=O)[C@@H]2C[C@H]3CC[C@@H]2C3)n1`, 7.33. The same measure, in the same setting: the figure for `CN(Cc1ccc(C(F)(F)F)cc1)C(=O)n1cnc(S(=O)(=O)[C@@H]2C[C@H]3CC[C@@H]2C3)n1` is 6.26; for `CCN(CC)C(=O)n1cnc(S[C@@H]2C[C@H]3CC[C@@H]2C3)n1` it is 5.65. For the molecule `CN(Cc1ccccc1F)C(=O)n1cnc(S(=O)(=O)[C@@H]2C[C@H]3CC[C@@H]2C3)n1`, in the data set on Plasmodium falciparum [1], the pIC50 is 6.74.

With `CN(Cc1ccc(F)cc1)C(=O)n1cnc(S(=O)(=O)[C@@H]2C[C@H]3CC[C@@H]2C3)n1`, the pIC50 in the data set with Plasmodium falciparum [1] was 6.71.

On to `Cc1nc(S(=O)(=O)[C@@H]2C[C@H]3CC[C@@H]2C3)nn1C(=O)N(C)C(C)C`, for which the pIC50 in the data set with Plasmodium falciparum [1] was less than 5.40. Still for that read-out and setting: the figure for `CN(Cc1ccccc1C(F)(F)F)C(=O)n1cnc(S(=O)(=O)[C@@H]2C[C@H]3CC[C@@H]2C3)n1` is 5.90; for `CCCN(C)C(=O)n1cnc(S(=O)(=O)[C@@H]2C[C@H]3CC[C@@H]2C3)n1` it is 6.84; for `CCN(C)C(=O)n1cnc(Sc2c(C)cc(C)cc2C)n1` it is 5.72. Still for that read-out and setting: to `CN(Cc1cccc(C(F)(F)F)c1)C(=O)n1cnc(S(=O)(=O)[C@@H]2C[C@H]3CC[C@@H]2C3)n1` belongs 5.73; to `CN(Cc1ccc(Cl)cc1)C(=O)n1cnc(S(=O)(=O)[C@@H]2C[C@H]3CC[C@@H]2C3)n1`, 6.22. In [4], `CN(Cc1ccc(C(C)(C)C)cc1)C(=O)n1cnc(S(=O)(=O)[C@@H]2C[C@H]3CC[C@@H]2C3)n1` gave a half-life of 9 min. Besides, the solubility kinetic in [7] came to 28 µM (≈ 12.1 µg/mL). Further, the values for the pIC50 with Plasmodium falciparum [1] and in the data set on HepG2 were 7.80 and 4.12, respectively. On to `O=C(N1CCCC1)n1cnc(S[C@@H]2C[C@H]3CC[C@@H]2C3)n1`, for which the half-life is less than 5 min in data set [4] and more than 30 min in data set [5]. The pIC50 with Plasmodium falciparum [1] was 6.75. This molecule also gave an Intrinsic clearance in the data set on Liver microsome of 1.5 mL/min/g. In turn, `O=C(N1CCCCC1)n1cnc(S(=O)(=O)[C@@H]2C[C@H]3CC[C@@H]2C3)n1` gave a negative-log IC50 (pIC50) with Plasmodium falciparum [1] of 6.20. On the same count and under the same terms, the figure for `CN(Cc1cccc(F)c1)C(=O)n1cnc(S(=O)(=O)[C@@H]2C[C@H]3CC[C@@H]2C3)n1` is 6.43; for `CCN(C)C(=O)n1cnc(S(=O)(=O)c2c(C)cc(C)cc2C)n1` it is 6.79.

What is called pIC50 is −log10 of the IC50, conventionally taken in molar units. Low readings indicate a high IC50, high ones a low IC50. As usually defined, the half-life is the time needed for the level to fall by half in the phase considered. A lower half-life goes with fast loss.
